Measurements taken from PubChem BioAssay AID2060510 (Molecular Pharmacology Branch, DTP, NCI, 2025).
Several values for one entry are separate records, joined by “and”; a condition that tells them apart may be missing. Equal entries are not always repeated.

Test system: 439559-082-T-J2-PDC spheroids viability
Assay: Anticancer human tumor 439559-082-T-J2-PDC patient-derived colon adenocarcinoma cell line growth inhibition [GQUAD]
Conditions: for viability, T/C: stronger effect = lower value; for IC50: curve of compound
Excerpt: DNA G-quadruplex Stabilizer Agents in Combinations in Complex Spheroids
A high-throughput screen of multi-cell type tumor spheroids was designed to identify active combinations of DNA G-quadruplex stabilizer agents and targeted small molecules. Complex spheroids include a stromal component modeled by human endothelial cells (HUVEC) and fibroblasts modeled by human mesenchymal stem cells (MSCs). The concentration ranges selected for each drug and investigational agent were based upon clinically achievable concentrations if the clinical Cmax of the agent was known.
Compounds. The drugs and investigational agents: pidnarulex (CX-5461; NSC782164), APTO-253 (NSC789042), BRACO-19 (NSC847499), peposertib (NSC802822), ceralasertib (NSC780249), elimusertib (NSC800525), camonsertib (NSC841442), AZD-1390 (NSC803789), olaparib (NSC753686), talazoparib (NSC767125), ART-558 (NSC835418), sotorasib (NSC818433), MRTX-1133 (NSC836407), SN-38 (NSC673596), topotecan (NSC609699), etoposide (NSC141540), doxorubicin (NSC123127), gemcitabine (NSC613327), 5-fluorouracil (NSC19893), paclitaxel (NSC125973), vemurafenib (NSC761431), panobinostat (NSC761190), R-306465 (JNJ-16241199; NSC773264), adavosertib (NSC754352), TP-3654 (NSC805149), carboplatin (NSC241240), KSQ-4279 (NSC840948), and staurosporine (NSC755774) were obtained from the National Cancer Institute (NCI) Developmental Therapeutics Program Chemical Repository (34). The FDA-approved anticancer drug set is available from the NCI Developmental Therapeutics Program. […] The stock solutions were prepared in dimethyl sulfoxide (DMSO, Sigma-Aldrich, St. Louis, MO, cat. D2650) at 800-fold the tested concentration and stored at -70 degrees C prior to their use. All drugs and investigational agents were tested over a range starting from a high concentration at or near the clinical Cmax and decreasing in half-log increments. If the clinical Cmax for an agent had not been determined, the highest concentration tested was 10 microM.
2.3 Cell Culture. All cells were maintained in an incubator at 37 degrees C and 5% CO2 with 95% humidity. The PDC lines were cultured according to standard operating procedures established by the NCI PDMR. All PDCs were thawed and cultured in Matrigel-coated flasks prepared with a working solution of 1X Ham's F-12 nutrient mix, without supplementation (Invitrogen, cat. 11765054), 100 U/mL penicillin-streptomycin (Invitrogen, cat. 15140122), and 2.5% Matrigel (Corning Inc., cat. 354248) for the first three passages. The 857933-349-R-J2-PDC line was cultured in 6C/Colon 1B media, which includes advanced DMEM/F-12 (Thermo Fisher Scientific, cat. 12634028), 10 mM HEPES (Thermo Fisher Scientific, cat. 15630080), 1X GlutaMAX supplement (Thermo Fisher Scientific, cat. 35050061), 0.1 mg/mL primocin (InvivoGen, cat. ant-pm-2), 10% defined fetal bovine serum, heat inactivated (HyClone Laboratories Inc., cat. SH30070.03HI), 50% L-WRN conditioned media (ATCC, cat. CRL-3276), 1.25 mM N-Acetyl-L-cysteine (Sigma-Aldrich, cat. A9165), 10 mM nicotinamide (Sigma-Aldrich, cat. N0636), 1X B-27 supplement (Thermo Fisher Scientific, cat. 17504044), 1X N-2 supplement (Thermo Fisher Scientific, cat. 17502048), 10 microM Y-27632 dihydrochloride (Tocris Bioscience, cat. 1254), and 50 ng/mL human EGF recombinant protein (Thermo Fisher Scientific, cat. PHG0311). The 485176-168-R4-J1-PDC line was cultured in Panc media, which includes all 6C/Colon 1B media components plus 100 ng/mL human FGF-10 (Thermo Fisher Scientific, cat. 100-26), 500 nM SB-431542 (Selleckchem, cat. S1067), and gastrin (Tocris, cat. 3006).
[…]
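Further: spheroids exposed to the agents for 7 days before readout.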
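Wherever viability, T/C is given: percent of luminescence signal in DMSO vehicle wells taken as 100% viability.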

Compound | IC50 | viability, T/C (compound 0.000999 µM) | viability, T/C (compound 0.00316 µM) | viability, T/C (compound 0.00999 µM) | viability, T/C (compound 0.0316 µM) | viability, T/C (compound 0.0999 µM) | viability, T/C (compound 0.316 µM) | viability, T/C (compound 0.1 µM) | viability, T/C (compound 1 µM) | viability, T/C (compound 3.16 µM) | viability, T/C (compound 10 µM)
COc1cccc2c1C(=O)c1c(O)c3c(c(O)c1C2=O)CC(O)(C(=O)CO)CC3OC1CC(N)C(O)C(C)O1 (stereo not drawn) | > 10 µM and 5.6 µM and 7.09 µM |  |  |  | 95.9% and 97.8% and 102% |  | 88.5% and 84.1% and 81.5% | 95.7% and 105% and 90.6% | 78.7% and 80.2% and 79.4% | 61.8% and 57.9% and 63.3% | 51.2% and 41.3% and 43.4%
CC(C)(O)C1CCC(Nc2ccc3ncc(-c4cccc(C(F)(F)F)c4)n3n2)CC1 (stereo not drawn) | > 10 µM and 1.5 µM and 1.86 µM |  |  |  | 100% and 101% and 106% |  | 60.8% and 103% and 99.9% | 76.5% and 92.8% and 98.9% | 57.9% and 71.8% and 90% | 53.2% and 7.83% and 15.9% | 49.5% and 12.5% and 13.8%
O=C(NO)c1cnc(N2CCN(S(=O)(=O)c3ccc4ccccc4c3)CC2)nc1 | 1.76 µM and 0.401 µM and 0.438 µM |  |  |  | 84.3% and 92.9% and 85.8% |  | 84% and 62.6% and 64.7% | 81.2% and 79.9% and 84.2% |  |  | 
CC[C@@]1(O)C(=O)OCc2c1cc1n(c2=O)Cc2cc3c(CN(C)C)c(O)ccc3nc2-1 | > 0.316 µM | 95.3% and 92.3% and 106% | 105% and 96.2% and 94.6% | 96% and 97.9% and 95.6% | 84.6% and 98% and 89.7% | 88.7% and 87.6% and 101% | 79% and 81.7% and 75.3% |  |  |  | 
CC1COCCN1c1cc(C2(O)CC3CCC(C2)O3)c2cnn(-c3ccn[nH]3)c2n1 (stereo not drawn) | 1.03 µM and 1.52 µM |  |  |  | 88.9% and 93.8% and 110% |  | 68.1% and 75.7% and 73.3% | 94.8% and 93.7% and 78.8% | 52.4% and 55.8% and 50.7% | 39% and 40.9% and 32.5% | 33.2% and 39.8% and 28.5%
CCc1c2c(nc3ccc(O)cc13)-c1cc3c(c(=O)n1C2)COC(=O)[C@]3(O)CC | 0.272 µM and 0.229 µM and 0.115 µM | 92.9% and 101% and 105% | 88.5% and 90.5% and 87.7% | 78.4% and 78.2% and 84.3% | 71.1% and 81.8% and 69.5% | 61.7% and 59.3% and 49.4% | 47.6% and 44.7% and 36.1% |  |  |  | 
CCCS(=O)(=O)Nc1ccc(F)c(C(=O)c2c[nH]c3ncc(-c4ccc(Cl)cc4)cc23)c1F | 3.43 µM and > 10 µM |  |  |  | 96.1% and 95.7% and 105% |  | 94.7% and 102% and 103% | 90.8% and 96.3% and 99.1% | 71.9% and 107% and 96.1% | 53.8% and 108% and 106% | 20.2% and 54.8% and 54.9%
Nc1ccn(C2OC(CO)C(O)C2(F)F)c(=O)n1 (stereo not drawn) | 0.444 µM and 0.249 µM and 0.24 µM |  |  |  | 83.6% and 83.2% and 89.5% |  | 53.7% and 46.2% and 49.7% | 74.3% and 67.4% and 60.4% | 38.5% and 30.7% and 32.6% | 28.2% and 25.8% and 28.4% | 22.9% and 26.9% and 23.2%

More lines, main results first:

IC50 | Compound | viability, T/C (compound 0.000999 µM) | viability, T/C (compound 0.00316 µM) | viability, T/C (compound 0.00999 µM) | viability, T/C (compound 0.0316 µM) | viability, T/C (compound 0.0999 µM) | viability, T/C (compound 0.316 µM) | viability, T/C (compound 0.1 µM) | viability, T/C (compound 1 µM) | viability, T/C (compound 3.16 µM) | viability, T/C (compound 10 µM)
> 0.316 µM | Cn1ncnc1[C@H]1c2n[nH]c(=O)c3cc(F)cc(c23)N[C@@H]1c1ccc(F)cc1 | 92.5% and 104% and 94.8% | 84.5% and 91.5% and 115% | 84.5% and 99.1% and 95.4% | 87.8% and 102% (2×) | 94.9% and 96.3% and 91.8% | 91.2% and 91.9% and 86.3% |  |  |  | 
> 10 µM | COc1ccc([C@@H](O)c2cc(-c3ncnc4cc(N5CCOCC5)ccc34)c(F)cc2Cl)nn1 |  |  |  | 101% and 95.3% and 86.2% |  | 94.8% and 100% and 84.1% | 85.9% and 92.8% and 85% | 98.8% and 88.3% and 102% | 86.5% and 77.7% and 79.9% | 91.6% and 78% and 75.7%
0.28 µM and 0.192 µM and 0.22 µM | CC1COCCN1c1cc(-c2ccnn2C)c2ccnc(-c3ccn[nH]3)c2n1 (stereo not drawn) |  |  |  | 97.7% and 97.6% and 93.5% |  | 46.8% and 35.7% and 39.2% | 80.6% and 68.1% and 73.8% | 34.3% and 35.7% and 31.6% | 37.7% and 30.7% and 31.6% | 33.5% and 28.8% and 34%
> 10 µM | CC1COCCN1c1cc(C2(S(C)(=N)=O)CC2)nc(-c2ccnc3[nH]ccc23)n1 (stereo not drawn) |  |  |  | 97.7% and 98.8% and 96.5% |  | 93.4% and 106% and 88.7% | 111% and 89.2% and 102% | 101% and 86.2% and 94% | 92.3% and 87.4% and 80.1% | 68.4% and 57.7% and 60.7%
> 10 µM | C=CC(=O)N1CCN(c2nc(=O)n(-c3c(C)ccnc3C(C)C)c3nc(-c4c(O)cccc4F)c(F)cc23)C(C)C1 (stereo not drawn) |  |  |  | 101% (2×) and 96.5% |  | 94.3% and 91.1% and 108% | 101% and 91.7% and 89.6% | 110% and 96.3% and 112% | 99% and 108% and 107% | 98.8% and 96.6% and 105%
